Assay results as given in ChEMBL document CHEMBL5154681, “Small Amphiphilic Peptides: Activity Against a Broad Range of Drug-Resistant Bacteria and Structural Insight into Membranolytic Properties” (J Med Chem, 2022).
Converted amounts (≈) assume the structure as drawn. The source made the active and inactive calls. No cut-off for these calls is given here. Square brackets hold non-standard residues; d marks the D form. Peptide text beside a SMILES is read from it. Dip = N[C@H](C(=O)O)C(c1ccccc1)c1ccccc1

Assays:
[1] = test system: Staphylococcus aureus; experiment: Antibacterial activity against methicillin resistant Staphylococcus aureus ATCC BAA-1556 incubated for 24 hrs by microtiter plate method; type: functional
[2] = test system: Pseudomonas aeruginosa; experiment: Antibacterial activity against Pseudomonas aeruginosa ATCC 27883 incubated for 24 hrs by microtiter plate method; type: functional; settings: Pseudomonas aeruginosa
[3] = test system: Escherichia coli; experiment: Antibacterial activity against Escherichia coli ATCC 25922 incubated for 24 hrs by microtiter plate method; type: functional; settings: Escherichia coli, ATCC 25922, 24 h, read-out: MIC
[4] = Hemolytic activity in human RBC assessed as hemolysis incubated for 2 hrs by spectrophotometer analysis; type: toxicity, cell-based, Erythrocyte; settings: human red blood cells (erythrocytes)
[5] = test system: Staphylococcus aureus; experiment: Antibacterial activity against Staphylococcus aureus ATCC 29213 incubated for 24 hrs by microtiter plate method; type: functional; settings: Staphylococcus aureus, ATCC 29213, read-out: MIC
[6] = test system: Escherichia coli; experiment: Antibacterial activity against Escherichia coli ATCC 25922 assessed as reduction in microbial growth after 24 hrs in presence of 6 mM of NH4Cl at by microtiter plate method; type: functional
[7] = test system: Staphylococcus aureus; experiment: Bactericidal activity against methicillin resistant Staphylococcus aureus ATCC BAA-1556 assessed as reduction of bacterial growth at MIC by counting formed colonies; type: functional, organism-based; settings: time <= 4.0 hrs, TDE = time-dependent effect
[8] = test system: Pseudomonas aeruginosa; experiment: Antibacterial activity against Pseudomonas aeruginosa ATCC 10145 incubated for 24 hrs by microtiter plate method; type: functional
[9] = test system: Klebsiella pneumoniae; experiment: Antibacterial activity against carbapenem-resistant Klebsiella pneumoniae ATCC BAA-2470 incubated for 24 hrs by microtiter plate method; type: functional
[10] = test system: Staphylococcus aureus; experiment: Antibacterial activity against methicillin resistant Staphylococcus aureus ATCC BAA-1556 after 24 hrs in presence of 4.5 mM of KCl by microtiter plate method; type: functional
[11] = test system: Escherichia coli; experiment: Bactericidal activity against Escherichia coli ATCC BAA-2452 assessed as reduction of bacterial growth at 4 times MIC by counting formed colonies; type: functional, organism-based; settings: time <= 4.0 hrs, TDE = time-dependent effect
[12] = test system: Staphylococcus aureus; experiment: Antibacterial activity against methicillin resistant Staphylococcus aureus ATCC BAA-1556 incubated for 24 hrs; type: functional
[13] = test system: Escherichia coli; experiment: Antibacterial activity against Escherichia coli ATCC 25922 after 24 hrs in presence of 4.5 mM of KCl at by microtiter plate method; type: functional
[14] = test system: Klebsiella pneumoniae; experiment: Antibacterial activity against Klebsiella pneumoniae ATCC 13883 […] incubated for 24 hrs by microtiter plate method; type: functional
[15] = test system: Staphylococcus aureus; experiment: Antibacterial activity against methicillin resistant Staphylococcus aureus ATCC BAA-1556 after 24 hrs in presence of 6 mM of NH4Cl by microtiter plate method; type: functional
[16] = test system: Staphylococcus aureus; experiment: Bactericidal activity against methicillin resistant Staphylococcus aureus ATCC BAA-1556 assessed as reduction of bacterial growth at 4 times MIC by counting formed colonies; type: functional, organism-based; settings: time <= 4.0 hrs, TDE = time-dependent effect
[17] = test system: Escherichia coli; experiment: Bactericidal activity against Escherichia coli ATCC BAA-2452 assessed as reduction of bacterial growth at MIC by counting formed colonies; type: functional, organism-based; settings: time <= 4.0 hrs, TDE = time-dependent effect
[18] = test system: Acinetobacter baumannii; experiment: Antibacterial activity against ciprofloxacin resistance Acinetobacter baumannii ATCC BAA1605 incubated for 24 hrs by microtiter plate method; type: functional
[19] = test system: Staphylococcus aureus; experiment: Bactericidal activity against methicillin resistant Staphylococcus aureus ATCC BAA-1556 assessed as time required for complete reduction of bacterial growth at MIC by counting formed colonies; type: functional
[20] = test system: Staphylococcus aureus; experiment: Antibacterial activity against methicillin resistant Staphylococcus aureus ATCC BAA-1556 after 24 hrs in presence of 1 mM of by microtiter plate method; type: functional
[21] = test system: Staphylococcus aureus; experiment: Antibacterial activity against methicillin resistant Staphylococcus aureus ATCC BAA-1556 after 24 hrs in presence of 2 mM of CaCl2 by microtiter plate method; type: functional
[22] = test system: Escherichia coli; experiment: Antibacterial activity against Escherichia coli ATCC 25922 after 24 hrs in presence of 150 mM NaCl by microtiter plate method; type: functional
[23] = test system: Pseudomonas aeruginosa; experiment: Antibacterial activity against imipenem resistant Pseudomonas aeruginosa ATCC BAA-1744 incubated for 24 hrs by microtiter plate method; type: functional
[24] = test system: Staphylococcus aureus; experiment: Antibacterial activity against methicillin resistant Staphylococcus aureus ATCC BAA-1556 after 24 hrs in presence of 150 mM of NaCl by microtiter plate method; type: functional
[25] = test system: Escherichia coli; experiment: Antibacterial activity against Escherichia coli ATCC 25922 after 24 hrs in presence of 2 mM CaCl2 at by microtiter plate method; type: functional
[26] = test system: Escherichia coli; experiment: Antibacterial activity against Escherichia coli ATCC 25922 incubated for 24 hrs; type: functional
[27] = test system: Staphylococcus aureus; experiment: Antibacterial activity against methicillin resistant Staphylococcus aureus ATCC BAA-1556 after 24 hrs in presence of fetal bovine serum by microtiter plate method; type: functional
[28] = test system: Escherichia coli; experiment: Antibacterial activity against Escherichia coli ATCC 25922 after 24 hrs in presence of fetal bovine serum by microtiter plate method; type: functional
[29] = test system: Staphylococcus aureus; experiment: Bactericidal activity against methicillin resistant Staphylococcus aureus ATCC BAA-1556 assessed as time required for complete reduction of bacterial growth at 4 times MIC by counting formed colonies; type: functional
[30] = test system: Enterococcus faecium; experiment: Antibacterial activity against Enterococcus faecium ATCC 27270 incubated for 24 hrs by microtiter plate method; type: functional
[31] = test system: Bacillus subtilis; experiment: Antibacterial activity against Bacillus subtilis ATCC 6633 incubated for 24 hrs by microtiter plate method; type: functional
[32] = test system: Bacillus cereus; experiment: Antibacterial activity against Bacillus cereus ATCC 13061 incubated for 24 hrs by microtiter plate method; type: functional
[33] = test system: Streptococcus pneumoniae; experiment: Antibacterial activity against […] ATCC 49619 incubated for 24 hrs by microtiter plate method; type: functional
[34] = test system: Enterococcus faecium; experiment: Antibacterial activity against vancomycin-resistant Enterococcus faecium ATCC 700221 incubated for 24 hrs by microtiter plate method; type: functional
[35] = test system: Enterococcus faecalis; experiment: Antibacterial activity against vancomycin-resistant Enterococcus faecalis ATCC 51575 incubated for 24 hrs by microtiter plate method; type: functional
[36] = test system: Streptococcus pneumoniae; experiment: Antibacterial activity against multidrug resistant […] ATCC 700677 incubated for 24 hrs by microtiter plate method; type: functional
[37] = test system: Enterococcus faecalis; experiment: Antibacterial activity against Enterococcus faecalis ATCC 29212 incubated for 24 hrs by microtiter plate method; type: functional
[38] = Staphylococcus aureus, ATCC BAA-1556, 24 h, read-out: MIC
[39] = ATCC 27883, 24 h, read-out: MIC

## N=C(N)NCCC[C@@H]1NC(=O)[C@H](CCCNC(=N)N)NC(=O)[C@H](CCCNC(=N)N)NC(=O)[C@H](C(c2ccccc2)c2ccccc2)NC(=O)[C@H](C(c2ccccc2)c2ccccc2)NC(=O)[C@H](C(c2ccccc2)c2ccccc2)NC(=O)[C@H](CCCNC(=N)N)NC(=O)[C@H](CCCNC(=N)N)NC1=O (cyclo([Dip][Dip][Dip]RRRRR))
[1]; [38]
  MIC: 6.2 µg/mL (≈ 4.27 µM)
[2]; [39]
  MIC: 25 µg/mL (≈ 17.2 µM)
[3]
  MIC: 25 µg/mL (≈ 17.2 µM)
[4]
  HC50 at 2 h: 100 µg/mL
[5]
  MIC: 6.2 µg/mL (≈ 4.27 µM)

## N=C(N)NCCC[C@@H]1NC(=O)[C@H](CCCNC(=N)N)NC(=O)[C@H](CCCNC(=N)N)NC(=O)[C@H](C(c2ccccc2)c2ccccc2)NC(=O)[C@H](C(c2ccccc2)c2ccccc2)NC(=O)[C@H](C(c2ccccc2)c2ccccc2)NC(=O)[C@H](C(c2ccccc2)c2ccccc2)NC(=O)[C@H](CCCNC(=N)N)NC1=O (cyclo([Dip][Dip][Dip][Dip]RRRR))
[1]; [38]
  MIC: 6.2 µg/mL (≈ 4.08 µM)
[2]; [39]
  MIC: 25 µg/mL (≈ 16.5 µM)
[3]
  MIC: 25 µg/mL (≈ 16.5 µM)
[4]
  HC50 at 2 h: 40 µg/mL
[5]
  MIC: 3.1 µg/mL (≈ 2.04 µM)

## N=C(N)NCCC[C@@H]1NC(=O)[C@H](CCCNC(=N)N)NC(=O)[C@H](C(c2ccccc2)c2ccccc2)NC(=O)[C@H](C(c2ccccc2)c2ccccc2)NC(=O)[C@H](CCCNC(=N)N)NC(=O)[C@H](CCCNC(=N)N)NC(=O)[C@H](C(c2ccccc2)c2ccccc2)NC1=O (stereo in doubt; 16C)
[1]; 24 h
  MIC: 6.2 µg/mL (≈ 4.79 µM)
[2]; [39]
  MIC: 50 µg/mL (≈ 38.6 µM)
[3]
  MIC: > 100 µg/mL
[4]
  HC50 at 2 h: 130 µg/mL
[5]
  MIC: 6.2 µg/mL (≈ 4.79 µM)

## N=C(N)NCCC[C@@H]1NC(=O)[C@H](CCCNC(=N)N)NC(=O)[C@H](Cc2ccc3ccccc3c2)NC(=O)[C@H](Cc2ccc3ccccc3c2)NC(=O)[C@H](CCCNC(=N)N)NC(=O)[C@H](CCCNC(=N)N)NC(=O)[C@H](Cc2ccc3ccccc3c2)NC1=O (stereo in doubt; 18C)
[1]; [38]
  MIC: 6.2 µg/mL (≈ 5.1 µM)
[2]; [39]
  MIC: > 100 µg/mL
[3]
  MIC: 25 µg/mL (≈ 20.6 µM)
[4]
  HC50 at 2 h: 105 µg/mL
[5]
  MIC: 6.2 µg/mL (≈ 5.1 µM)

## O=C(O)c1cn(C2CC2)c2cc(N3CCNCC3)c(F)cc2c1=O [CIPROFLOXACIN]
[1]; [38]
  MIC: 3.1 µg/mL (≈ 9.36 µM)
[6]
  MIC: 0.3 µg/mL
[7]
  Activity: Tde
[8]
  MIC: 0.7 µg/mL (≈ 2.11 µM)
[9]
  MIC: 0.7 µg/mL (≈ 2.11 µM)
[10]
  MIC: 1.5 µg/mL
[11]
  Activity: Tde
[12]
  MBC: 50 µg/mL (≈ 151 µM)
[13]
  MIC: 0.3 µg/mL
[14]
  MIC: 1.5 µg/mL (≈ 4.53 µM)
[2]; ATCC 27883, read-out: MIC
  MIC: 0.7 µg/mL (≈ 2.11 µM)
[15]
  MIC: 0.7 µg/mL
[16]
  Activity: Tde
[17]
  Activity: Tde
[18]
  MIC: 0.7 µg/mL (≈ 2.11 µM)
[19]
  Activity: Active
[20]
  MIC: 1.5 µg/mL
[21]
  MIC: 1.5 µg/mL
[22]
  MIC: 0.3 µg/mL
[23]
  MIC: 0.7 µg/mL (≈ 2.11 µM)
[5]
  MIC: 1.5 µg/mL (≈ 4.53 µM)
[24]
  MIC: 1.5 µg/mL
[25]
  MIC: 0.3 µg/mL
[26]
  MBC: 12.5 µg/mL (≈ 37.7 µM)
[27]
  MIC: 1.5 µg/mL
[28]
  MIC: 0.3 µg/mL
[29]
  Activity: Active

## CN[C@H](CC(C)C)C(=O)N[C@H]1C(=O)N[C@@H](CC(N)=O)C(=O)N[C@H]2C(=O)N[C@H]3C(=O)N[C@H](C(=O)N[C@H](C(=O)O)c4cc(O)cc(O)c4-c4cc3ccc4O)[C@H](O)c3ccc(c(Cl)c3)Oc3cc2cc(c3O[C@@H]2O[C@H](CO)[C@@H](O)[C@H](O)[C@H]2O[C@H]2C[C@](C)(N)[C@H](O)[C@H](C)O2)Oc2ccc(cc2Cl)[C@H]1O [VANCOMYCIN]
[30]
  MIC: 1.5 µg/mL (≈ 1.04 µM)
[31]
  MIC: 0.7 µg/mL (≈ 0.483 µM)
[32]
  MIC: 0.7 µg/mL (≈ 0.483 µM)
[33]
  MIC: 3.1 µg/mL (≈ 2.14 µM)
[34]
  MIC: > 50 µg/mL
[35]
  MIC: > 50 µg/mL
[36]
  MIC: 1.5 µg/mL (≈ 1.04 µM)
[37]
  MIC: 0.7 µg/mL (≈ 0.483 µM)
